Common to all, as to test: DTP human tumour cell line panel, 48 h
Assay [1] deals with A498 renal.
Assay [2] has as its system A549 NSCLC.
In assay [3] the test system is IGROV1 ovarian.
The test system of assay [4] is KM12 colon.
Assay [5] deals with NCI-H23 lung.
Assay [6] has as its system OVCAR-4 ovarian.
Assay [7] concerns RXF 393 renal.
In assay [8] the test system is SK-MEL-2 melanoma.
Assay [9] has as its system SK-OV-3 ovarian.
For assay [10], the system named is UO-31 renal.

Structures are written as SMILES. Several values for one entry are separate records, joined by “and”; a condition that tells them apart may be missing. Identical values can stand only once.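 Assay format: 96-well plates, 48-hour exposure. GI50: concentration for 50% inhibition of growth. The concentration for full growth arrest is given as TGI.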

One may read the TGI as the concentration giving total growth inhibition. Low values mean greater sensitivity of the cells, high ones lower sensitivity of the cells. Broadly, the GI50 is the concentration giving 50% growth inhibition.

On to `Oc1oc(-c2ccccc2)nc1/C=C1/C=NN=N1`, for which the TGI in assay [1], in assay [2], in assay [3], in assay [4], in [5] and in assay [6] was over 100 µM throughout. For the same molecule, the TGI in assay [7], in assay [8], in assay [9] and in assay [10] was over 100 µM throughout.

On to `O=C(Nn1c2c(sc1=NC1CC1)C(=O)c1ccccc1C2=O)c1cc2ccc1CCc1ccc(cc1)CC2`, for which the GI50 was 20.7 µM in [1]; 2.42 µM in assay [2]; 1.16 µM in [3]; 3.12 µM in [4]; 1.31 µM in [5]; 1.61 µM in [6]. Besides, the GI50 in [7] was 1.85 µM; in [8] it was 2.47 µM; in assay [9], 7.03 µM; in assay [10] it was 0.85 µM. The TGI in [1] amounted to 63.4 µM; in assay [2] it was 6.07 µM; in assay [3], 4.74 µM; in [4] it was 13.7 µM; in assay [5] it was 4.32 µM; in assay [6] it was 4.58 µM. Besides, the TGI in assay [7] is 4.75 µM; in assay [8] it was 7.25 µM; in [9], 21.4 µM; in assay [10], 2.77 µM.

With `CN1CCN(c2ccc([N+](=O)[O-])c3no[n+]([O-])c23)CC1`, the GI50 is 0.288 µM in [1]; 0.385 µM in assay [2]; 0.0516 µM in assay [3]; 0.144 µM in [4]; 0.173 µM in assay [5]; 0.444 µM in assay [6]. Further, the GI50 was 0.443 µM in assay [7], 0.468 µM in [8], 0.87 µM in assay [9] and 0.189 µM in [10]. For the same molecule, the TGI in assay [1] was 2.76 µM and 1.71 µM; in [2], 3.53 µM and 2.06 µM; in assay [3], 0.919 µM and 0.362 µM; in [4], 1.6 µM and 0.291 µM; in assay [5], 0.389 µM and 1.02 µM; in assay [6], 2.54 µM and 1.8 µM. The total growth inhibition concentration (TGI) in assay [7] was 1.57 µM and 1.68 µM; in assay [8], 3.01 µM and 1.66 µM; in assay [9] it was 1.73 µM and 2.12 µM; in [10], 1.88 µM and 1.14 µM.

For `O=C(Nc1cc([N+](=O)[O-])cc([N+](=O)[O-])c1)OC1C2CCC1C1OC1C2` (stereo not given), the TGI in assay [1], in assay [2], in [3], in assay [4], in [5] and in assay [6] was over 50 µM in each case. The TGI in [7], in assay [8], in assay [9] and in assay [10] was over 50 µM in each case.

`CC(=O)NNc1nc(C)c(C(/C=C/c2ccc(Cl)cc2)=N/NC(=S)NN)s1`: the TGI in assay [1], in assay [2], in assay [3], in assay [4], in assay [5] and in assay [6] was over 100 µM in each case. Moreover, the TGI in assay [7], in assay [8], in assay [9] and in assay [10] was over 100 µM in each case.

As to `C[n+]1ccc2[nH]c3ccccc3c2c1`, the TGI in assay [1], in [2], in assay [3], in assay [4], in assay [5] and in [6] was over 100 µM each time. Besides, the TGI in assay [7], in assay [8], in assay [9] and in [10] was over 100 µM throughout.

For `Cc1cccc(NC(=O)Cc2nc3ccccc3s2)c1C`, the TGI in assay [1], in [2], in [3], in assay [4], in assay [5] and in assay [6] was over 100 µM throughout. Besides, the TGI in assay [7], in [8], in [9] and in assay [10] was over 100 µM in each case.

Take `NC(=O)N/N=C1/CCCC/C1=C\c1ccccc1`: the TGI in [1], in [2], in [3], in assay [4], in assay [5] and in assay [6] was over 100 µM each time. Further, the TGI in [7], in assay [8], in [9] and in [10] was over 100 µM throughout.

Consider `CC(C)(C)n1cc(-c2ccnc(NCCCNS(=O)(=O)c3ccc(Cl)cc3)c2)c(-c2cccc(O)c2)n1`, for which the GI50 in [1] is 1.51 µM; in assay [2], 1.97 µM; in assay [3] it was 1.88 µM; in assay [4] it was 2.08 µM; in assay [5] it was 1.68 µM; in [6], 1.94 µM. In addition, the GI50 in [7] was 1.46 µM; in [8], 1.92 µM; in assay [9], 2.35 µM; in assay [10] it was 1.89 µM. Moreover, the TGI in [1] stood at 3.72 µM; in [2], 4.97 µM; in assay [3], 4.39 µM; in assay [4] it was 4.44 µM; in [5], 3.48 µM; in [6], 4.64 µM. In addition, the TGI turned out to be 2.99 µM in [7], 3.89 µM in assay [8], 6.08 µM in assay [9] and 5.02 µM in assay [10].

Values taken from PubChem BioAssay (NCI).
